The target in assay [1] is T1, human MC4 receptor (Homo sapiens, UniProt P32245).
T1 construct: expressed in transfected cells; host or cells: FreeStyle 293-F cells (transient, electroporation)
The assay is described as follows: Human MC4 receptor activation, cAMP production in cells transiently expressing the receptor. The class given is cell-based. The settings on record: FreeStyle 293-F cells expressing human MC4 receptor, α-MSH maximum = 100%. The source says:
(§1) (1) Construction of Human MC Receptor-Expressing Vector
(§2) A human MC4 receptor gene (GenBank Accession No.: NM_005912.2), a human MC1 receptor gene (GenBank Accession No.: NM_002386.3), or a human MC3 receptor gene (GenBank Accession No.: NM_019888.3) was introduced into an expression vector pcDNA™ 3.1N/V5-His TOPO (registered trademark) (Thermo Fisher Scientific Inc).
(§3) (2) Construction of Cells Transiently Expressing Human MC Receptor
(§4) An expression vector for a human MC4, MC1, or MC3 receptor was introduced into FreeStyle™ 293-F cells (Thermo Fisher Scientific Inc., product number: R790-07). For the introduction, electroporation was employed. That is, 1×10^7 FreeStyle™ 293-F cells were suspended in 80 μL of an Electroporation Buffer (Thermo Fisher Scientific Inc., product number: B201-100), and 20 μg of the expression vector was added thereto. The resultant was put into a cuvette (OC-100 Processing Assembly, MaxCyte, Inc.) and electroporated with MaxCyte STX (registered trademark) (MaxCyte, Inc.). The cells were cultured for a day, suspended in a Cell Banker (registered trademark) 1 (TAKARA BIO INC. or JUJI FIELD Inc., product number: BLC-1), and stored frozen until they were used.
(§5) (3) Measurement of Amount of cAMP Production
(§6) Measurement was carried out by using a LANCE (registered trademark) Ultra cAMP Kit (PerkinElmer, Inc.) in accordance with the attached instructions. That is, after dissolution in DMSO, the test compound (a final concentration of 1 pM to 30 μM) diluted with an assay buffer (Hank's balanced salt solution, 5 mM 4-(2-hydroxyethyl)-1-piperazineethanesulfonic acid (HEPES), 0.5 mM 3-isobutyl-1-methylxanthine (IBMX), 0.1% bovine serum albumin, pH 7.4), or α-MSH (Bachem Inc., a final concentration of 1 pM to 30 μM) was added to OptiPlate-384 (PerkinElmer, Inc.). Furthermore, the suspension of the cells transiently expressing the human MC4, MC1, or MC3 receptor prepared using the assay buffer was added thereto at 1,000 cells/well, and then left to stand at room temperature for about 1 hour. Thereafter, an Eu-cAMP tracer solution and an ULight™-anti-cAMP solution were added thereto, and then the resulting solution was left to stand at room temperature for about 1 hour. The amount of cAMP was calculated using EnVision (registered trademark) (PerkinElmer Inc.).
(§7) For the agonistic activity, the efficacy (EC50 (μM)) was calculated by a non-linear regression method with a Sigmoid-Emax model, by defining the maximum reaction using α-MSH as 100% and the reaction using the vehicle alone as 0%, respectively.

Assay [2] deals with T2, human MC1 receptor (Homo sapiens, UniProt Q01726).
T2 construct: expressed in transfected cells; host or cells: FreeStyle 293-F cells (transient, electroporation)
T2 sequence (Q01726 whole entry): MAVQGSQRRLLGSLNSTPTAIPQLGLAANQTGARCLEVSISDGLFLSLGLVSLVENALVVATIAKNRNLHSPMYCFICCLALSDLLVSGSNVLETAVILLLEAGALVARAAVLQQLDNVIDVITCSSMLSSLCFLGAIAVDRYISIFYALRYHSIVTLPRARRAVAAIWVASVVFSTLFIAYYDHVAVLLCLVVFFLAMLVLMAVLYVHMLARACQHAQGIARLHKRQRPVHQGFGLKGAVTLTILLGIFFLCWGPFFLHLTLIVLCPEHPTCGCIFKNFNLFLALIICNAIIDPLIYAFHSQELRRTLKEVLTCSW
The assay is described as follows: Human MC1 receptor activation, cAMP production in cells transiently expressing the receptor. The class given is cell-based. The settings on record: FreeStyle 293-F cells expressing human MC1 receptor, α-MSH maximum = 100%.
Source text: as §1, §2, §3, §4, §5, §6, §7

The target of assay [3] is T3, human MC3 receptor (Homo sapiens, UniProt P41968).
T3 construct: expressed in transfected cells; host or cells: FreeStyle 293-F cells (transient, electroporation)
T3 sequence (P41968 whole entry): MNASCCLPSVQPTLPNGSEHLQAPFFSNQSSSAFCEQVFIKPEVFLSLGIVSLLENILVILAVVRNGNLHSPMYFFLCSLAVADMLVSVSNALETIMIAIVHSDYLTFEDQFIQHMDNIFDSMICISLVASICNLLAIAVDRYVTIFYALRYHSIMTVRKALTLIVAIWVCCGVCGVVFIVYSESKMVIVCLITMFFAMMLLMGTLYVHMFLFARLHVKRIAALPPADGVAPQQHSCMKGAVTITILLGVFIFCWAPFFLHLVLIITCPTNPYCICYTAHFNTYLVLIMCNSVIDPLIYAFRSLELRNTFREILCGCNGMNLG
The assay can be described thus: Human MC3 receptor activation, cAMP production in cells transiently expressing the receptor. In kind it is cell-based. To be noted: FreeStyle 293-F cells expressing human MC3 receptor, α-MSH maximum = 100%.
Source text: as §1, §2, §3, §4, §5, §6, §7

In assay [4] the target is T4, rat MC4 receptor (Rattus norvegicus, UniProt P70596).
T4 construct: expressed in transfected cells; host or cells: FreeStyle 293-F cells (transient, electroporation)
T4 sequence (P70596 whole entry): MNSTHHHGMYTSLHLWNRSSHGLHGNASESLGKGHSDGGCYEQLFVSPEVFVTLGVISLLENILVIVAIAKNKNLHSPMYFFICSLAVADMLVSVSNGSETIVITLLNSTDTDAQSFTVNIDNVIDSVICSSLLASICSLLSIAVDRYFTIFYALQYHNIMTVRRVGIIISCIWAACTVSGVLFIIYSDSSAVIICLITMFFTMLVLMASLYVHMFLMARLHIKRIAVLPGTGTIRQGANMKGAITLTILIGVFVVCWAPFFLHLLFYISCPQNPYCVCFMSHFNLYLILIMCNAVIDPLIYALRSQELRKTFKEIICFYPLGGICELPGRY
The assay can be described thus: Rat MC4 receptor activation, cAMP production in cells transiently expressing the receptor. The class given is cell-based. The settings on record: FreeStyle 293-F cells expressing rat MC4 receptor, α-MSH maximum = 100%.
Source text: (1) Construction of Rat MC4 Receptor-Expressing Vector
A rat MC4 receptor gene (GenBank Accession No.: NM_013099.3) was introduced into an expression vector pcDNA™ 3.1N/V5-His TOPO (registered trademark) (Thermo Fisher Scientific Inc.).
(2) Construction of Cells Transiently Expressing Rat MC4 Receptor
as §4, with “rat MC4” for “human MC4, MC1, or MC3”, “Inc.).” for “Inc., product number: R790-07).”, “electroporation buffer” for “Electroporation Buffer”, “Inc.),” for “Inc., product number: B201-100),”, “Inc.),” for “Inc., product number: BLC-1),”
as §5
Measurement was carried out in accordance with the attached instructions, using a LANCE (registered trademark) Ultra cAMP Kit (PerkinElmer, Inc.). That is, after dissolution in DMSO, the test compound (a final concentration of 1 pM to 30 μM) diluted with an assay buffer (Hank's balanced salt solution, 5 mM HEPES, 0.5 mM IBMX, 0.1% bovine serum albumin, pH 7.4), or α-MSH (Bachem Inc., a final concentration of 1 pM to 30 μM) was added to OptiPlate-384 (PerkinElmer, Inc.). Furthermore, the suspension of the cells transiently expressing the rat MC receptor that was prepared using the assay buffer was added thereto at 1,000 cells/well, and then left to stand at room temperature for about 1 hour. Thereafter, an Eu-cAMP tracer solution and an ULight™-anti-cAMP solution were added thereto, and the resulting solution was left to stand at room temperature for about 1 hour. The amount of cAMP was calculated using EnVision (registered trademark) (PerkinElmer Inc).
For the agonistic activity, an efficacy (EC50 (μM)) was calculated by a non-linear regression method with a Sigmoid-Emax model, by defining the maximum reaction using α-MSH as 100% and the reaction using a vehicle alone as 0%, respectively.

Assay [5] has as its system phenylephrine-induced urethral pressure increase. The assay can be described thus: Effect on rat urethral pressure (phenylephrine-induced urethral pressure increase). The settings on record: read-out: ID40. In kind it is in vivo. The protocol:
The present Test Example was performed by partially modifying the technique reported as a testing system for evaluating a urethral resistance-reducing action (European Journal of Pharmacology, 679, 127-131 (2012)). Male Wistar rats (Charles River Laboratories Japan, Inc.) were anesthetized with urethane (1.2 g/kg ip), and immobilized in a supine position. The midline incision was performed in the lower abdominal portion such that the bladder was exposed. The bladder apex was incised, and from the incision site, a microchip pressure transducer catheter (3.5 Fr, Millar, Inc) was inserted and implanted into the inside of the urethra. In addition, a cannula for drug administration was implanted into the femoral vein. After the urethral pressure was stabilized, phenylephrine hydrochloride (Sigma-Aldrich Co. LLC., 30 μg/kg) was intravenously administered to induce an increase in the urethral pressure. At an interval of about 30 minutes, the above operation was repeated twice or more so as to confirm the stability of the phenylephrine hydrochloride-induced urethral pressure increasing reaction. Then, a test compound (dissolved in 20% dimethyl acetamide, 10% Cremophor (registered trademark), and 70% physiological saline) was intravenously administered, and after 5 minutes, phenylephrine hydrochloride was administered. The procedure of the administration of the test compound and the administration of phenylephrine hydrochloride was repeated at an interval of about 30 minutes, and 3 to 5 doses of the test compound was evaluated (the test compound was administered at increasing doses). The obtained data was introduced into a personal computer through PowerLab (registered trademark) (ADInstruments, Inc.) and analyzed using LabChart (registered trademark) (ADInstruments, Inc.). For the evaluation, the value (AUC value, mmHg-s) of the area under the urethral pressure for one minute before and after administration of phenylephrine hydrochloride was determined to calculate the difference (ΔAUC value) between the AUC value before the administration of phenylephrine hydrochloride and the AUC value after the administration of phenylephrine hydrochloride. The ΔAUC value obtained before administering the test compound was regarded as being 100%, and based on this, the ratio (reaction rate) of the ΔAUC value of the test compound at each dose was calculated. The dose at which the obtained reaction rate became 60% (40% as an inhibition rate) was defined as ID40, and the ID40 values of the test compounds were calculated by non-linear regression.

Where [6] appears, read: male Wistar rats, urethane anesthesia, intravenous, dose giving 40% inhibition of phenylephrine-induced urethral pressure ΔAUC.

Consider three molecules from patent US10710988B2, “Piperazine derivative” (Astellas Pharma Inc., priority 2016, dated 2020).

Read-outs that look alike come from different tables or passages of the source.

T1 sequence (P32245 whole entry): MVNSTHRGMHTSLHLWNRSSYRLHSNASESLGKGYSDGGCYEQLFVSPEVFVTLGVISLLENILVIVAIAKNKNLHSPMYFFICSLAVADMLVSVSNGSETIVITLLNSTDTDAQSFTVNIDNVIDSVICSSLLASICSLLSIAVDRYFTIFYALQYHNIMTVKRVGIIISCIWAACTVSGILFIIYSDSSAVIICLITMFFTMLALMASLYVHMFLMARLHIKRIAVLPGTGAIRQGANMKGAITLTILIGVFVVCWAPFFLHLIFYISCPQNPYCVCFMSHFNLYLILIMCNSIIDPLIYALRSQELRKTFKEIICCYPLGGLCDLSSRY

Turning to `CC(=O)N[C@@H](CC(C)(C)C)C(=O)N1CCN(C(=O)[C@@H]2CN(C3CCOCC3)C[C@H]2c2ccc(Cl)cc2F)[C@@H](C)C1.Cl` [Example 20, N-{(2S)-1-[(3S)-4-{[(3 S,4R)-4-(4-chloro-2-fluorophenyl)-1-(tetrahydro-2H-pyran-4-yl)pyrrolidin-3-yl]carbonyl}-3-methylpiperazin-1-yl]-4,4-dimethyl-1-oxopentan-2-yl}acetamide monohydrochloride], the EC50 in assay [1] amounted to 23 nM; in assay [2], 8000 nM; in assay [3], 1200 nM; in assay [4] it was 7.6 nM. In addition, in assay [5] (setting [6]), the ED40 is 40 mg/kg.
For the molecule `CC(=O)N[C@@H](CC(C)(C)C)C(=O)N1C[C@H](C)N(C(=O)[C@@H]2CN(C3CCOCC3)C[C@H]2c2ccc(Cl)cc2F)C[C@H]1C` [Example 3], the EC50 was determined as 8 nM in assay [1], 5700 nM in assay [2] and 310 nM in assay [3]. In assay [5] (iv), the ED40 is 8.9 mg/kg.
In turn, `CC(=O)N[C@@H](CC1CCCC1)C(=O)N1CCN(C(=O)[C@@H]2CN(C(C)(C)C)C[C@H]2c2ccc(F)cc2F)[C@@H](C)C1.Cl` [Example 16, N-((2S)-1-[(3S)-4-{[(3S,4R)-1-tert-butyl-4-(2,4-difluorophenyl)pyrrolidin-3-yl]carbonyl}-3-methylpiperazin-1-yl]-3-cyclopentyl-1-oxopropan-2-yl) acetamide monohydrochloride] yielded an EC50 in assay [1] of 14 nM. Moreover, in assay [5] (setting [6]), the ED40 stood at 11 mg/kg.
